Measured values as given in patent US6218393A, “Anthranilic acid derivatives as multi drug resistance modulators” (priority 1997, dated 2001).

Columns and labels:
[1] = system: AR 1.0 cells; experiment: Potentiation index with doxorubicin titration; format: cell-based, mouse; settings: for Potentiation Index at RMA concentration 30 nM: Table C1, RMA 30 nM; for Potentiation Index at RMA concentration 50 nM: Table C1, RMA 50 nM; for Potentiation Index at RMA concentration 100 nM: Table C1, RMA 100 nM; for Potentiation Index at RMA concentration 10 nM: Table C1, RMA 10 nM
Method: The EMT6 mouse mammary carcinoma cell line and the MDR resistant subline AR 1.0 were cultured in RPMI 1640 medium containing 10% foetal calf serum and 2 mM glutamine at 37° C. in 5% CO2. Cells were passaged between 1 in 200 and 1 in 2000 in the case of the parental cell line and between 1 in 20 and 1 in 200 in the case of the MDR resistant subline, after trypsinisation (0.25% trypsin, 0.2 gl^-1, EDTA). […]
(b) Cells were cultured for four days with a titration of doxorubicin (0.263 nM-17.24 μM) in the presence of a fixed concentration of each compound. Proliferation was quantified as described by Skehen et al, loc cit. The IC50 (concentration required to reduce proliferation to 50% of the untreated controls) for doxorubicin alone and with each compound were derived and used to calculate the potentiation index (PI): [formula]

[2] = system: AR 1.0 cells; experiment: Drug accumulation assay: daunorubicin accumulation in AR 1.0 cells; format: cell-based; settings: Mus musculus, 100% = accumulation with verapamil 100 μM, 1 hr, 37° C.
Method: The EMT6 mouse mammary carcinoma cell line and the MDR resistant subline AR 1.0 were cultured in RPMI 1640 medium containing 10% foetal calf serum and 2 mM glutamine at 37° C. in 5% CO2. Cells were passaged between 1 in 200 and 1 in 2000 in the case of the parental cell line and between 1 in 20 and 1 in 200 in the case of the MDR resistant subline, after trypsinisation (0.25% trypsin, 0.2 gl^-1, EDTA).
AR 1.0 cells were seeded 48 hours prior to assay into 96 well opaque culture plates (Canberra Packard).

SMILES	Potentiation Index at RMA concentration 30 nM [1]	Potentiation Index at RMA concentration 50 nM [1]	Potentiation Index at RMA concentration 100 nM [1]	IC50 [2]	Potentiation Index at RMA concentration 10 nM [1]
COc1ccc(CN(C)Cc2ccc(NC(=O)c3ccccc3NC(=O)c3cnc4ccccc4c3)cc2)cc1OC(C)C [compound 9652, Quinoline-3-carboxylic acid [2-(4-{[(3-isopropoxy-4-methoxy-benzyl)-methyl-amino]-methyl}-phenylcarbamoyl)-phenyl]-amide]	1.2	1.8	7.6	0.064 µM	
COc1cc2c(cc1OC)CN(CCOc1ccc(NC(=O)c3ccccc3NC(=O)c3cnc4ccccc4n3)cc1)CC2 [compound 9632, Quinoxaline-2-carboxylic acid (2-{4-[2-(6,7-dimethoxy-3,4-dihydro-1H-isoquinolin-2-yl)-ethoxy]-phenylcarbamoyl}-phenyl)-amide]	2.1	2.7	8	0.431 µM	1.1
COc1cc(CCN2CCc3cc(OC)c(OC)cc3C2)ccc1NC(=O)c1ccccc1NC(=O)c1cnc2ccccc2c1 [compound 9651, Quinoline-3-carboxylic acid (2-{4-[2-(6,7-dimethoxy-3,4-dihydro-1H-isoquinolin-2-yl)-ethyl]-2-methoxy-phenylcarbamoyl}-phenyl)-amide]		1.1	2.2	0.071 µM	
COc1ccc(CN(C)CCc2ccc(NC(=O)c3ccccc3NC(=O)c3cnc4ccccc4c3)cc2)cc1OC(C)C [compound 9639, Quinoline-3-carboxylic acid [2-(4-{2-[(3-isopropoxy-4-methoxy-benzyl)-methyl-amino]-ethyl}-phenylcarbamoyl)-phenyl]-amide]	34	78	136	0.108 µM	2.6
CCCCN(CCc1ccc(NC(=O)c2ccccc2NC(=O)c2cnc3ccccc3c2)cc1)Cc1ccc(OC)c(OC)c1 [compound 9641, Quinoline-3-carboxylic acid [2-(4-{2-[butyl-(3,4-dimethoxy-benzyl)-amino]-ethyl}-phenylcarbamoyl)-phenyl]-amide]	17	46	162	0.0019 µM	1.5
COc1ccc(CN(C)CCc2ccc(NC(=O)c3ccccc3NC(=O)c3cnc4ccccc4c3)cc2)cc1O [compound 9647, Quinoline-3-carboxylic acid [2-(4-{2-[(3-hydroxy-4-methoxy-benzyl)-methyl-amino]-ethyl}-phenylcarbamoyl)-phenyl]-amide]		1	6	0.033 µM	
COc1cc2c(cc1OC)CN(CCc1ccc(NC(=O)c3cscc3NC(=O)c3ccc(C)nc3)cc1)CC2 [compound 9617, N-(4-{4-[2-(6,7-Dimethoxy-3,4-dihydro-1H isoquinolin-2-yl)-ethyl]-phenylcarbamoyl}-thiophen-3-yl)-6-methyl-nicotinamide]	4	15	81	0.203 µM	1.5
COc1cc(CN(C)CCc2ccc(NC(=O)c3ccccc3NC(=O)c3cnc4ccccc4c3)cc2)cc(OC)c1OC [compound 9640, Quinoline-3-carboxylic acid [2-(4-{2-[methyl-(3,4,5-trimethoxy-benzyl)-amino]-ethyl}-phenylcarbamoyl)-phenyl]-amide]	2.5	4.6	23.8	0.194 µM	1
COc1ccc(CN(C)CCc2ccc(NC(=O)c3ccc(Cl)cc3NC(=O)c3cnc4ccccc4c3)cc2)cc1OC [compound 9663, Quinoline-3-carboxylic acid [5-chloro-2-(4-{2-[(3-4-dimethoxy-benzyl)-methyl-amino]-ethyl}-phenylcarbamoyl)-phenyl]-amide]	80	74	82	0.175 µM	50
CCCCOc1ccc(CN(C)CCc2ccc(NC(=O)c3ccccc3NC(=O)c3cnc4ccccc4c3)cc2)cc1OC [compound 9642, Quinoline-3-carboxylic acid [2-(4-{2-[(4-butoxy-3-methoxy-benzyl)-methyl-amino]-ethyl}-phenylcarbamoyl)-phenyl]-amide]	1.2	2.5	14	0.341 µM	1.0
COc1cc2c(cc1OC)CN(CCc1ccc(NC(=O)c3cc(SC)ccc3NC(=O)c3cnc4ccccc4c3)cc1)CC2 [compound 9615, Quinoline-3-carboxylic acid (2-{4-[2-(6,7-dimethoxy-3,4-dihydro-1H-isoquinolin-2-yl)-ethyl]-phenylcarbamoyl}-4-methylsulfanyl-phenyl)-amide]	23	85	175	0.213 µM	2
CCN(CCc1ccc(NC(=O)c2ccccc2NC(=O)c2cnc3ccccc3c2)cc1)Cc1ccc(OC)c(OC)c1 [compound 9636]	22	46	131	0.184 µM	2.6
COc1cc2c(cc1OC)CN(CCc1ccc(NC(=O)c3cccnc3NC(=O)c3cnc4ccccc4n3)cc1)CC2 [compound 9600, Quinoxaline-2-carboxylic acid (3-{4-[2-(6,7-dimethoxy-3,4-dihydro-1H-isoquinolin-2-yl)-ethyl]-phenylcarbamoyl}-pyridin-2-yl)-amide]		1.98	2.55	0.199 µM	
COc1cc2c(cc1OC)CN(CCNC(=O)c1ccccc1NC(=O)c1cnc3ccccc3c1)CC2 [compound 9397, Quinoline-3-carboxylic acid {2-[2-(6,7 dimethoxy-3,4-dihydro-1H-isoquinolin-2-yl)-ethylcarbamoyl]-phenyl}-amide]				10 µM	
COc1cc2c(cc1OC)CN(CCc1ccc(NC(=O)c3ccccc3NC(=O)c3cc4ccccc4nc3Cl)cc1)CC2 [compound 9591, 2-Chloro-quinoline-3-carboxylic acid (2-{4-[2-(6,7-dimethoxy-3,4-dihydro-1H-isoquinolin-2-yl)-ethyl]-phenylcarbamoyl}-phenyl)-amide]				0.425 µM	
COc1cc2c(cc1OC)CN(CCNC(=O)c1ccccc1NC(=O)c1ccccn1)CC2 [compound 9377, Pyridine-2-carboxylic acid {2-[2-(6,7-dimethoxy-3,4-dihydro-1H-isoquinolin-2-yl)-ethylcarbamoyl]-phenyl}-amide]				5.5 µM	
COc1cc2c(cc1OC)CN(CCNC(=O)c1cccc(C)c1NC(=O)c1ccc(C(C)C)cc1)CC2 [compound 9398, 2-(4-Isopropyl-benzoylamino)-N-[2-(6,7-dimethoxy-3,4-dihydro-1H-isoquinolin-2-yl)-ethyl]-3-methyl-benzamide]				1.5 µM	
O=C(Nc1ccccc1C(=O)Nc1ccc(CCN2CCc3ccc(Cl)c(Cl)c3C2)cc1)c1cnc2ccccc2c1 [compound 9629, Quinoline-3-carboxylic acid (2-{4-[2-(7,8-dichloro-3,4-dihydro-1H-isoquinolin-2-yl)-ethyl]-phenylcarbamoyl}-phenyl)-amide]				> 10 µM	
COc1ccc(CN(C)CCc2ccc(NC(=O)c3ccc([N+](=O)[O-])cc3NC(=O)c3cnc4ccccc4c3)cc2)cc1OC [compound 9677, Quinoline-3-carboxylic acid [2-(4-{2-[(3,4-dimethoxy-benzyl)-methyl-amino]-ethyl}-phenylcarbamoyl)-5-nitro-phenyl]-amide]				0.169 µM	
O=C(Nc1ccccc1C(=O)NCCN1CCc2ccccc2C1)c1ccc(C2CCCCC2)cc1 [compound 9479, 2-(4-Cyclohexyl-benzoylamino)-N-[2-(3,4-dihydro-1H-isoquinolin-2-yl)-ethyl]-benzamide]				2.1 µM	
COc1cc2c(cc1OC)CN(CCNC(=O)c1cccc(OC)c1NC(=O)c1ccc(C(C)C)cc1)CC2 [compound 9399, 2-(4-Isopropyl-benzoylamino)-N-[2-(6,7-dimethoxy-3,4-dihydro-1H-isoquinolin-2-yl)-ethyl]-3-methoxy-benzamide]				5 µM	
COc1cc2c(cc1OC)CN(CCNC(=O)c1ccccc1NC(=O)c1ccncc1)CC2 [compound 9384, N-{2-[2-(6,7-Dimethoxy-3,4-dihydro-1H-isoquinolin-2-yl)-ethylcarbamoyl]-phenyl}-isonicotinamide]				> 10 µM	
